Test results taken from patent publication US9932340B2, “Substituted indoles” (AbbVie Inc., priority 2014, dated 2018).

Target: SUV420H1 enzyme (Homo sapiens, UniProt Q4FZB7)
Assay: TR-FRET SAH SUV420H1 enzyme inhibition assay
Format: biochemical
Conditions: Histone Peptide H4(8-30)me1 and SAM, overnight at room temp, TR-FRET detection of SAH, read-out: TR-FRET SAH_SUV420H1 IC50
Protocol: Test compounds were dispensed by a Labcyte Echo in 384-well low volume assay plates with 3-fold serial dilutions from 50 μM to 0.00075 μM. 5 μL of SUV420H1 enzyme (Abbvie) at 90 nM was added to all wells except the no enzyme control wells, and incubated for 30 minutes at room temp before 5 μL of Histone Peptide H4(8-30)me1 (Anaspec) at 5 nM and SAM at 4 nM was added to all wells. The plates were incubated in a humidified chamber overnight at room temp and then 10 μL of the detection reagent that contained RIPA buffer (50 mM Tris-HCl, pH 8.0, 150 mM sodium chloride, 1.0% Igepal CA-630 (NP-40), 0.5% sodium deoxycholate and 0.1% sodium dodecyl sulfate) (Sigma) with 2 nM of Terbium chelate anti S-adenosyl-L-homocysteine (SAH) (Abbvie) antibody and Oregon Green labeled SAH at 4 nM was added. The plates were further incubated for 4 hours at room temperature. The plates were read in a Perkin Elmer Envision using a TR-FRET protocol with Excitation set at 335 nm and Emission at 520 and 495 nm. To generate dose response curves the data is normalized to percent inhibition by setting the average of the plus and minus enzyme control wells to 0% and 100% inhibition respectively. The IC50 values for the compounds are generated by fitting the normalized data with Accelrys Assay Explorer 3.3 to a sigmoidal curve model using […] regression, Y=(100*x^n)/(K^n+x^n), where Y is the measured response, x is the compound concentration, n is the Hill Slope and K is the IC50 and the lower and higher asymptotes are constrained to 0 and 100 respectively.

SUV420H1 enzyme, sequence (Q4FZB7 whole entry): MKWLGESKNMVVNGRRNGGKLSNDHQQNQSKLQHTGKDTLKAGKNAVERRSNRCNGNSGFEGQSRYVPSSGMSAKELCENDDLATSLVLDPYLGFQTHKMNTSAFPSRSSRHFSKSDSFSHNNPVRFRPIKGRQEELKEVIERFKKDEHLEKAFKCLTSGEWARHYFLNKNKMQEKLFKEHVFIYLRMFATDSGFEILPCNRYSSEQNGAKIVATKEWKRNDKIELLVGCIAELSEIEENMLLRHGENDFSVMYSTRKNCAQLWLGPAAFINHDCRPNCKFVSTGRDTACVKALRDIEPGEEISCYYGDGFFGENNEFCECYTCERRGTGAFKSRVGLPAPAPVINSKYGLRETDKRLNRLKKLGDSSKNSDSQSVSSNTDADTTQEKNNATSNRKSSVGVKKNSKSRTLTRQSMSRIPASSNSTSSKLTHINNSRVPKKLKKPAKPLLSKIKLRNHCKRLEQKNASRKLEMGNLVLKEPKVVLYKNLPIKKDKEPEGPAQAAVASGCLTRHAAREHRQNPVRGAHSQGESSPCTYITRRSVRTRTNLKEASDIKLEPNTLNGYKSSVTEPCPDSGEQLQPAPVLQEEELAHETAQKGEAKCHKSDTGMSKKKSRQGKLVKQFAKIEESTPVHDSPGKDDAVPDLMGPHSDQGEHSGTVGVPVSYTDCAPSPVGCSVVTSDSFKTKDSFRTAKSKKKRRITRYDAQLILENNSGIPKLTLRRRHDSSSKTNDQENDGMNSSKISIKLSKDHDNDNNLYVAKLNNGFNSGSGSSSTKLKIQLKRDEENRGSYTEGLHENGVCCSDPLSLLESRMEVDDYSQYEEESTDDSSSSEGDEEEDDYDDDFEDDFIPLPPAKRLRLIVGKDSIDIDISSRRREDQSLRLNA

IC50	SMILES
0.548 µM	COc1cccc(-c2ccc(Cn3cnc4c(N)ncnc43)c3[nH]c(CN)cc23)c1 [Example 79, 9-{[2-(aminomethyl)-4-(3-methoxyphenyl)-1H-indol-7-yl]methyl}-9H-purin-6-amine]
1.85 µM	COc1ccccc1-c1ccc(Cn2cnc3c(N)ncnc32)c2[nH]c(CN)cc12 [Example 80, 9-{[2-(aminomethyl)-4-(2-methoxyphenyl)-1H-indol-7-yl]methyl}-9H-purin-6-amine]
0.334 µM	CS(=O)(=O)c1ccc(-c2ccc(Cn3cnc4c(N)ncnc43)c3[nH]c(CN)cc23)cc1 [Example 81, 9-({2-(aminomethyl)-4-[4-(methylsulfonyl)phenyl]-1H-indol-7-yl}methyl)-9H-purin-6-amine]
0.939 µM	N#Cc1ccc(-c2ccc(Cn3cnc4c(N)ncnc43)c3[nH]c(CN)cc23)cc1 [Example 82, 4-{2-(aminomethyl)-7-[(6-amino-9H-purin-9-yl)methyl]-1H-indol-4-yl}benzonitrile]
0.831 µM	N#Cc1cccc(-c2ccc(Cn3cnc4c(N)ncnc43)c3[nH]c(CN)cc23)c1 [Example 83, 3-{2-(aminomethyl)-7-[(6-amino-9H-purin-9-yl)methyl]-1H-indol-4-yl}benzonitrile]
0.569 µM	NCc1cc2c(-c3cccc(C(N)=O)c3)ccc(Cn3cnc4c(N)ncnc43)c2[nH]1 [Example 84, 3-{2-(aminomethyl)-7-[(6-amino-9H-purin-9-yl)methyl]-1H-indol-4-yl}benzamide]
0.605 µM	CS(=O)(=O)Nc1ccc(-c2ccc(Cn3cnc4c(N)ncnc43)c3[nH]c(CN)cc23)cc1 [Example 85, N-(4-{2-(aminomethyl)-7-[(6-amino-9H-purin-9-yl)methyl]-1H-indol-4-yl}phenyl)methanesulfonamide]
0.915 µM	CN(C)C(=O)c1ccc(-c2ccc(Cn3cnc4c(N)ncnc43)c3[nH]c(CN)cc23)cc1 [Example 86, 4-{2-(aminomethyl)-7-[(6-amino-9H-purin-9-yl)methyl]-1H-indol-4-yl}-N,N-dimethylbenzamide]
> 50 µM	CC(=O)c1cc2cc(Cl)cc(Cn3cnc4c(N)ncnc43)c2[nH]1 [Example 87, 1-{7-[(6-amino-9H-purin-9-yl)methyl]-5-chloro-1H-indol-2-yl}ethanone]
1.43 µM	CC(N)c1cc2cc(Cl)cc(Cn3cnc4c(N)ncnc43)c2[nH]1 (stereo not drawn) [Example 88, 9-{[2-(1-aminoethyl)-5-chloro-1H-indol-7-yl]methyl}-9H-purin-6-amine]
2.6 µM	CNCc1cc2cc(Cl)cc(Cn3cnc4c(N)ncnc43)c2[nH]1 [Example 89, 9-({5-chloro-2-[(methylamino)methyl]-1H-indol-7-yl}methyl)-9H-purin-6-amine]
2.24 µM	CCC(=O)c1cc2cc(Cl)cc(Cn3cnc4c(N)ncnc43)c2[nH]1 [Example 90, 1-{7-[(6-amino-9H-purin-9-yl)methyl]-5-chloro-1H-indol-2-yl}propan-1-one]
2.67 µM	CCC(N)c1cc2cc(Cl)cc(Cn3cnc4c(N)ncnc43)c2[nH]1 (stereo not drawn) [Example 91, 9-{[2-(1-aminopropyl)-5-chloro-1H-indol-7-yl]methyl}-9H-purin-6-amine]
> 50 µM	CC(=O)NCc1cc2cc(Cl)cc(Cn3cnc4c(N)ncnc43)c2[nH]1 [Example 92, N-({7-[(6-amino-9H-purin-9-yl)methyl]-5-chloro-1H-indol-2-yl}methyl)acetamide]
9.73 µM	C=CC(=O)NCc1cc2cc(Cl)cc(Cn3cnc4c(N)ncnc43)c2[nH]1 [Example 93, N-({7-[(6-amino-9H-purin-9-yl)methyl]-5-chloro-1H-indol-2-yl}methyl)prop-2-enamide]
31.1 µM	CCC(=O)NCc1cc2cc(Cl)cc(Cn3cnc4c(N)ncnc43)c2[nH]1 [Example 94, N-({7-[(6-amino-9H-purin-9-yl)methyl]-5-chloro-1H-indol-2-yl}methyl)propanamide]
> 50 µM	COCC(=O)NCc1cc2cc(Cl)cc(Cn3cnc4c(N)ncnc43)c2[nH]1 [Example 95, N-({7-[(6-amino-9H-purin-9-yl)methyl]-5-chloro-1H-indol-2-yl}methyl)-2-methoxyacetamide]
16.3 µM	Nc1ncnc2c1ncn2Cc1cc(Cl)cc2cc(CNCCC(=O)O)[nH]c12 [Example 96, 3-[({7-[(6-amino-9H-purin-9-yl)methyl]-5-chloro-1H-indol-2-yl}methyl)amino]propanoic acid]

IC50	SMILES
11.4 µM	CCN(CC)Cc1cc2cc(Cl)cc(Cn3cnc4c(N)ncnc43)c2[nH]1 [Example 97, 9-({5-chloro-2-[(diethylamino)methyl]-1H-indol-7-yl}methyl)-9H-purin-6-amine]
11.8 µM	CCCC(=O)NCc1cc2cc(Cl)cc(Cn3cnc4c(N)ncnc43)c2[nH]1 [Example 98, N-({7-[(6-amino-9H-purin-9-yl)methyl]-5-chloro-1H-indol-2-yl}methyl)butanamide]
25.1 µM	CC(C)C(=O)NCc1cc2cc(Cl)cc(Cn3cnc4c(N)ncnc43)c2[nH]1 [Example 99, N-({7-[(6-amino-9H-purin-9-yl)methyl]-5-chloro-1H-indol-2-yl}methyl)-2-methylpropanamide]
10.9 µM	COCCC(=O)NCc1cc2cc(Cl)cc(Cn3cnc4c(N)ncnc43)c2[nH]1 [Example 100, N-({7-[(6-amino-9H-purin-9-yl)methyl]-5-chloro-1H-indol-2-yl}methyl)-3-methoxypropanamide]
> 50 µM	Nc1ncnc2c1ncn2Cc1cc(Cl)cc2cc(CN(CC(=O)O)CC(=O)O)[nH]c12 [Example 101, 2,2′-[({7-[(6-amino-9H-purin-9-yl)methyl]-5-chloro-1H-indol-2-yl}methyl)imino]diacetic acid]
6.36 µM	CC(C)CC(=O)NCc1cc2cc(Cl)cc(Cn3cnc4c(N)ncnc43)c2[nH]1 [Example 102, N-({7-[(6-amino-9H-purin-9-yl)methyl]-5-chloro-1H-indol-2-yl}methyl)-3-methylbutanamide]
25.3 µM	CC(C)(O)CC(=O)NCc1cc2cc(Cl)cc(Cn3cnc4c(N)ncnc43)c2[nH]1 [Example 103, N-({7-[(6-amino-9H-purin-9-yl)methyl]-5-chloro-1H-indol-2-yl}methyl)-3-hydroxy-3-methylbutanamide]
18.2 µM	CC(C)(C)CC(=O)NCc1cc2cc(Cl)cc(Cn3cnc4c(N)ncnc43)c2[nH]1 [Example 104, N-({7-[(6-amino-9H-purin-9-yl)methyl]-5-chloro-1H-indol-2-yl}methyl)-3,3-dimethylbutanamide]
8.17 µM	CC(C)CCC(=O)NCc1cc2cc(Cl)cc(Cn3cnc4c(N)ncnc43)c2[nH]1 [Example 105, N-({7-[(6-amino-9H-purin-9-yl)methyl]-5-chloro-1H-indol-2-yl}methyl)-4-methylpentanamide]
3.32 µM	CC(C)(C)OC(=O)CNCc1cc2cc(Cl)cc(Cn3cnc4c(N)ncnc43)c2[nH]1 [Example 106, tert-butyl [({7-[(6-amino-9H-purin-9-yl)methyl]-5-chloro-1H-indol-2-yl}methyl)amino]acetate]
10.9 µM	Nc1ncnc2c1ncn2Cc1cc(Cl)cc2cc(CNC(=O)C3CC3)[nH]c12 [Example 107, N-({7-[(6-amino-9H-purin-9-yl)methyl]-5-chloro-1H-indol-2-yl}methyl)cyclopropanecarboxamide]
17 µM	CC1(C(=O)NCc2cc3cc(Cl)cc(Cn4cnc5c(N)ncnc54)c3[nH]2)CC1 [Example 108, N-({7-[(6-amino-9H-purin-9-yl)methyl]-5-chloro-1H-indol-2-yl}methyl)-1-methylcyclopropanecarboxamide]
10.6 µM	CC1CC1C(=O)NCc1cc2cc(Cl)cc(Cn3cnc4c(N)ncnc43)c2[nH]1 (stereo not drawn) [Example 109, N-({7-[(6-amino-9H-purin-9-yl)methyl]-5-chloro-1H-indol-2-yl}methyl)-2-methylcyclopropanecarboxamide]
10.7 µM	Nc1ncnc2c1ncn2Cc1cc(Cl)cc2cc(CNC(=O)CC3CC3)[nH]c12 [Example 110, N-({7-[(6-amino-9H-purin-9-yl)methyl]-5-chloro-1H-indol-2-yl}methyl)-2-cyclopropylacetamide]
8.8 µM	Nc1ncnc2c1ncn2Cc1cc(Cl)cc2cc(CNC(=O)C3CCC3)[nH]c12 [Example 111, N-({7-[(6-amino-9H-purin-9-yl)methyl]-5-chloro-1H-indol-2-yl}methyl)cyclobutanecarboxamide]
32 µM	Nc1ncnc2c1ncn2Cc1cc(Cl)cc2cc(CNC(=O)C3(O)CCC3)[nH]c12 [Example 112, N-({7-[(6-amino-9H-purin-9-yl)methyl]-5-chloro-1H-indol-2-yl}methyl)-1-hydroxycyclobutanecarboxamide]
> 50 µM	Nc1ncnc2c1ncn2Cc1cc(Cl)cc2cc(CNC(=O)C3CCCO3)[nH]c12 (stereo not drawn) [Example 113, N-({7-[(6-amino-9H-purin-9-yl)methyl]-5-chloro-1H-indol-2-yl}methyl)tetrahydrofuran-2-carboxamide]
8.16 µM	Nc1ncnc2c1ncn2Cc1cc(Cl)cc2cc(CNC(=O)C3CCOC3)[nH]c12 (stereo not drawn) [Example 114, N-({7-[(6-amino-9H-purin-9-yl)methyl]-5-chloro-1H-indol-2-yl}methyl)tetrahydrofuran-3-carboxamide]
